Where a name gives a salt, the structure may show the parent alone.
Columns and labels:
[1] = test system: CT26 cells; assay: Inhibition of proliferation of CT26 cells (CellTiter-Glo); assay type: cell-based, mouse; conditions: for IC50: Mus musculus, 120 hours, CellTiter-Glo
Protocol: CT26 cell is a mouse colorectal cancer cell line. This assay used the CellTiter-Glo Luminescence Cell Vitality Assay kit from Promega to evaluate the inhibitory activity of the compounds on the proliferation of CT26 cells.
In thawing the CT26 cells (ATCC #CRL-2638), a cell freezing tube was quickly shaken in a water bath at 37° C. to thaw the cells within 1 min. The thawed cell suspension was taken and evenly mixed with DMEM medium (GE, Cat #SH30243.01) containing 10% FBS (GIBCO, Cat #10099-141), centrifuged for 5 min at 1000 rpm, and the supernatant was discarded. The cell pellet was resuspended in 5 mL of the complete medium (DMEM medium containing 10% FBS), placed into a cell culture flask with a bottom area of 25 cm^2, and incubated in a cell incubator at 37° C., 5% CO2 and 95% humidity. When the cell confluence reached 70%˜80%, the cells were passaged. All the cells in the culture flask were transferred to a 15 mL centrifuge tube, centrifuged for 5 min at 1000 rpm, and the supernatant was discarded. 5 mL of fresh complete medium was added to re-suspend the cell pellet, 1 mL of which was taken to place in a cell culture flask with a bottom area of 25 cm^2, supplemented with 4 mL of fresh complete medium for further incubation. When the cell confluence reached 70%-80% again, plating was conducted following the procedure of cell passage, retaining 1/5 cell suspension for further inculation and remaining 4/5 of the cell suspension in a 15 mL centrifuge tube.
The cell suspension was centrifuged to discard the old culture medium, washed once using DMEM medium (serum-free), and centrifuged to remove the supernatant. The cells were then re-suspended in DMEM medium (serum-free). Cell viability was then detected by Trypan blue exclusion test and to be used for plating when the cell viability was confirmed to be more than 95%. A cell suspension with a density of 1.1×10^4 viable cells/mL was prepared using DMEM medium (serum-free), and 90 μL of the cell suspension was added to a 96-well 96-well transparent flat-bottomed black-walled cell culture plate (Corning, Cat #3603) so that the cell density in the plate was 1000 viable cells/well. A control group containing no cells, no compound, and complete medium only (i.e., a culture medium control), and a control group containing no compound but cells (i.e., a cell control) were set. The cell plates were placed in a cell incubator overnight.
(§1) A 10 mM stock solution of the compounds in DMSO was first serially diluted at 3.16-fold with DMSO (Sigma, Cat #D2650) to the 9th concentration, and the 10th concentration was set as DMSO control (compound-free). Then, the DMSO solutions containing different concentrations of the compounds were diluted at 10-fold with PBS (Solarbio, Cat #P1020) so that the DMSO content in each compound solution of various concentrations was 10%. Finally, 10 μL of each of such solutions was added into corresponding cell culture plate to provide an initial compound concentration of 100 μM, with the dilution fold of adjacent concentrations being 3.16 and the DMSO content in the cell culture plate being 1%. The cell plate was placed in a cell incubator for further 120 hours.
After 120 hours, the CellTiter-Glo reagent (Promega, Cat #G7572) was thawed and the plates were equilibrated at room temperature for 30 min. 100 uL of CellTiter-Glo was added to each well of the plate, and the cells were lysed thoroughly by shaking on an orbital shaker for 5 min. The plates were placed at room temperature for 20 min to stabilize the luminescence signal, and the luminescence value of each well was scanned at full wavelength with a multifunctional microplate reader (Molecular Devices, Spectramax M3). […]

[2] = test system: IFN-β secretion by THP-1 cells; assay: Activation of IFN-β secretion by THP-1 cells (Human IFN-beta ELISA); assay type: cell-based; conditions: for EC50 / Activating effect on IFN-β secretion / STING agonist activity (in words): THP-1 cells; for EC50: 24 hours, IFN-β ELISA; for Activating effect on IFN-β secretion / STING agonist activity (in words): EC50 compared with 2′,3′-cGAMP and ADU-S100
Protocol: THP-1 cell, a human monocytic leukemia cell line, has the STING phenotype of HAQ type, i.e., R71H-G230A-R293Q. This assay used the Human IFN-beta DuoSet ELISA Kit from R & D (R & D, Cat #DY814-05) and the DuoSet ELISA Ancillary Reagent Kit 2 (R & D, Cat #DY008) to evaluate the activation of IFN-β secretion from THP-1 cells by representative compounds of the invention.
In thawing the THP-1 cells (ATCC #TIB-202), a cell freezing tube was quickly shaken in a water bath at 37° C. to thaw the cells within 1 min. The thawed cell suspension was taken and evenly mixed with an RPMI1640 medium (Hyclone, product #SH30027.01) containing 10% FBS (Life Technology, Cat #10099-141), centrifuged for 5 min at 1000 rpm, and the supernatant was discarded. The cell pellet was resuspended in 5 mL of the complete medium (RPMI 1640 medium containing 10% FBS), placed into a cell culture flask with a bottom area of 25 cm^2, and incubated in a cell incubator at 37° C., 5% CO2 and 95% humidity. When the cell confluence reached about 80%, the cells were passaged. All the cells in the culture flask were transferred to a 15 mL centrifuge tube, centrifuged for 5 min at 1000 rpm, and the supernatant was discarded. 5 mL of fresh complete medium was added to re-suspend the cell pellet, 1 mL of which was taken to place in a cell culture flask with a bottom area of 25 cm^2, supplemented with 4 mL of fresh complete medium for further incubation. When the cell confluence reached about 80% again, plating was conducted following the procedure of cell passage, retaining 1/5 cell suspension for further inculation and remaining 4/5 of the cell suspension in a 15 mL centrifuge tube. The cell suspension was centrifuged to discard the old culture medium, washed once using RPMI1640 culture medium (serum-free), and centrifuged to remove the supernatant. The cells were then re-suspended in RPMI1640 culture medium (serum-free). Cell viability was then detected by Trypan blue exclusion test and to be used for plating when the cell viability was confirmed to be more than 95%. A cell suspension with a density of 1.1×10^6 viable cells/mL was prepared using RPMI1640 culture medium (serum-free), and 180 μL of the cell suspension was added to a 96-well cell culture plate (NUNC Company, Cat #167008) so that the cell density in the plate was 2×10^5 viable cells/well.
as §1, with “the 5th” for “the 9th”, “the 6th” for “the 10th”, “PBS” for “PBS (Solarbio, Cat #P1020)”, “Finally, 20” for “Finally, 10”, “further 24” for “further 120”
ELISA detection was conducted referring to the instructions from R & D System, Cat #DY814-05.
ELISA plate coating: PBS (R & D System Cat #DY006) was used to dilute the capture antibody (mouse anti-human IFN-β capture antibody PART #844508) to provide the working concentration, and 100 μL capture antibody working solution was added to a 96-well ELISA plate which was then sealed and incubated overnight at room temperature. Upon discarding the capture antibody working solution, the cell plate was washed 3 times with a washing buffer (0.05% Tween-20 in PBS, pH 7.2-7.4, R & D System Cat #WA126) at 400 μL of the washing buffer per well, and the washing buffer was thoroughly removed after each washing, with the final washing to be completely removed of the wash buffer by inverting and claping the plate to a clean piece of paper. […]

[3] = test system: CT26 cells; assay: Anti-tumor activity in bilateral transplantation tumor model of CT26 syngeneic mouse; assay type: in vivo, BALB/c mice; conditions: Day 13 post-dose; 50 μg/mouse intratumorally right side, Day 0 and Day 4
Protocol: BALB/c mice of 6-8 weeks (purchased from Shanghai Ling Chang Biotech Co., Ltd.) were inoculated with 5×10^5 CT26 cells (supplied by Taicang Zexin Biotechnology Co., Ltd., ATCC #CRL-2638) subcutaneously on the left and right back dorsal, respectively, and the inoculation volume was 0.1 mL/side. When tumors grew to an average volume of 100 mm^3, they were randomized according to tumor size and mouse body weight and dosing was initiated. The day of the first dose was Day 0.
Two doses were administered on Day 0 and Day 4, with 50 μg of compound/mouse (i.e., 2.5 mg/kg) injected intratumorally right side, with the same volume of PBS (Hyclone, Cat #SH30258.01) as a control. The tumor on the left side was not treated. The control mice were sacrificed 13 days and the treated mice were sacrificed 21 days, after dosing. During the experiment, tumor volumes on the left and right sides and the body weights were measured 3 times per week, and the tumor volume was calculated as V=D×d×d/2 (where D represents length of tumor and d represents width of tumor).

Compound	IC50 [1] [µM]	EC50 ([2]; Homo sapiens, THP-1, 24 h) [µM]	also measured
Nc1ccn([C@@H]2O[C@@H]3CO[P@@](=O)(S)OC4[C@@H](CO[P@@](=O)(S)OC3C2(F)F)O[C@@H](n2ccc(N)nc2=O)C4(F)F)c(=O)n1 (stereo partly drawn) [Example 3, (3′,3′)-cyclo-(Rp,Rp)-bis-[3′-O-phosphorothioate-diester-2′-deoxy-2′,2′-difluorocytidine]]	< 1	–	Inhibitory potency on in vitro growth of CT26 tumor cells (in words) [1]: particularly significant inhibitory potency
Nc1nc(Cl)nc2c1ncn2[C@@H]1O[C@@H]2CO[P@@](=O)(S)OC3C(O)[C@@H](CO[P@@](=O)(S)OC2C1F)O[C@H]3n1cnc2c(N)ncnc21 (stereo partly drawn) [Example 5, (2′,3′)-cyclo-(Rp,Rp)-[2′-O-phosphorothioate-diester-adenosine]-[3′-O-phosphorothioate-diester-2-chloro-2′-deoxy-2′-fluoro-beta-adenosine] diammonium salt]	1 to 10	10.1 to 100	–
Nc1ncnc2c1ncn2[C@@H]1O[C@@H]2CO[P@@](=O)(S)OC3C(F)[C@H](n4cnc5c(N)nc(Cl)nc54)O[C@@H]3CO[P@@](=O)(S)OC2C1O (stereo partly drawn) [Example 7, (3′,3′)-cyclo-(Rp,Rp)-[3′-O-phosphorothioate-diester-adenosine]-[3′-O-phosphorothioate-diester-2-chloro-2′-deoxy-2′-fluoro-beta-adenosine] diammonium salt]	1 to 10	–	–
Nc1nc2c(ncn2[C@@H]2O[C@@H]3CO[P@@](=O)(S)OC4C[C@H](n5cnc6c(N)nc(Cl)nc65)O[C@@H]4CO[P@@](=O)(S)OC2C3O)c(=O)[nH]1 (stereo partly drawn) [Example 12, (2′,3′)-cyclo-(Rp,Rp)-[2′-O-phosphorothioate-diester-guanosine]-[3′-O-phosphorothioate-diester-2-chloro-2′-deoxy-adenosine] diammonium salt]	1 to 10	1 to 10	Activating effect on IFN-β secretion / STING agonist activity (in words) [2]: significant STING agonist activity; Growth inhibition rate, untreated left tumor [3]: 75.3%
Nc1ccn([C@@H]2O[C@@H]3CO[P@@](=O)(S)O[C@H]4C(O)[C@@H](CO[P@@](=O)(S)O[C@@H]3C2(F)F)O[C@H]4n2cnc3c(=O)[nH]c(N)nc32)c(=O)n1 (stereo partly drawn) [Example 13, (2′,3′)-cyclo-(Rp,Rp)-[2′-O-phosphorothioate-diester-guanosine]-[3′-O-phosphorothioate-diester-2′-deoxy-2′,2′-difluorocytidine]diammonium salt]	< 1	10.1 to 100	–
Nc1nc2c(ncn2[C@@H]2O[C@@H]3CO[P@@](=O)(S)OC4C(F)[C@H](n5cnc6c(N)nc(Cl)nc65)O[C@@H]4CO[P@](=O)(S)OC3C2O)c(=O)[nH]1 (stereo partly drawn) [Example 16, (3′,3′)-cyclo-(Rp,Rp)-[3′-O-phosphorothioate-diester-guanosine]-[3′-O-phosphorothioate-diester-2-chloro-2′-deoxy-2′-fluoro-beta-adenosine] diammonium salt]	1 to 10	–	EC50 ([2]; diammonium salt): 1 to 10 µM; Activating effect on IFN-β secretion / STING agonist activity (in words) [2]: significant STING agonist activity; Highest concentration of IFN-β secreted by stimulated THP-1 cells ([2]; compared with ADU-S100): higher than that of ADU-S100; Growth inhibition rate, untreated left tumor [3]: 71.7%
Nc1ccn([C@@H]2O[C@H](CO)[C@@H](O)C2(F)F)c(=O)n1 [Gemcitabine, gemcitabine, reference compound]	< 1	–	–
CCCC(CCC)C(=O)Nc1ccn([C@@H]2O[C@H](CO)[C@@H](O)C2(F)F)c(=O)n1 [LY2334737, N4-(2-propylpentanoyl)-2′-deoxy-2′,2′-difluorocytidine, reference compound]	1 to 10	–	–
